# Source: patent US20240317735A1, “HYDROISOQUINOLINE OR HYDRONAPHTHYRIDINE COMPOUNDS FOR THE TREATMENT OF AUTOIMMUNE DISEASE” (Hoffmann-La Roche Inc., priority 2020, published 2024)
# How the values were obtained:
# human TLR8 = target: T1, human TLR8 (Homo sapiens, UniProt Q9NR97); test: HEK293-Blue-hTLR-8 cells assay (SEAP reporter, R848 stimulation); format: cell-based; conditions: HEK293-Blue-hTLR8 cells, R848, 20 hrs; read-out: HEK/hTLR8 IC50
# T1 construct: host or cells: HEK293 (HEK-Blue hTLR8)
# T1 sequence (Q9NR97 27-1041): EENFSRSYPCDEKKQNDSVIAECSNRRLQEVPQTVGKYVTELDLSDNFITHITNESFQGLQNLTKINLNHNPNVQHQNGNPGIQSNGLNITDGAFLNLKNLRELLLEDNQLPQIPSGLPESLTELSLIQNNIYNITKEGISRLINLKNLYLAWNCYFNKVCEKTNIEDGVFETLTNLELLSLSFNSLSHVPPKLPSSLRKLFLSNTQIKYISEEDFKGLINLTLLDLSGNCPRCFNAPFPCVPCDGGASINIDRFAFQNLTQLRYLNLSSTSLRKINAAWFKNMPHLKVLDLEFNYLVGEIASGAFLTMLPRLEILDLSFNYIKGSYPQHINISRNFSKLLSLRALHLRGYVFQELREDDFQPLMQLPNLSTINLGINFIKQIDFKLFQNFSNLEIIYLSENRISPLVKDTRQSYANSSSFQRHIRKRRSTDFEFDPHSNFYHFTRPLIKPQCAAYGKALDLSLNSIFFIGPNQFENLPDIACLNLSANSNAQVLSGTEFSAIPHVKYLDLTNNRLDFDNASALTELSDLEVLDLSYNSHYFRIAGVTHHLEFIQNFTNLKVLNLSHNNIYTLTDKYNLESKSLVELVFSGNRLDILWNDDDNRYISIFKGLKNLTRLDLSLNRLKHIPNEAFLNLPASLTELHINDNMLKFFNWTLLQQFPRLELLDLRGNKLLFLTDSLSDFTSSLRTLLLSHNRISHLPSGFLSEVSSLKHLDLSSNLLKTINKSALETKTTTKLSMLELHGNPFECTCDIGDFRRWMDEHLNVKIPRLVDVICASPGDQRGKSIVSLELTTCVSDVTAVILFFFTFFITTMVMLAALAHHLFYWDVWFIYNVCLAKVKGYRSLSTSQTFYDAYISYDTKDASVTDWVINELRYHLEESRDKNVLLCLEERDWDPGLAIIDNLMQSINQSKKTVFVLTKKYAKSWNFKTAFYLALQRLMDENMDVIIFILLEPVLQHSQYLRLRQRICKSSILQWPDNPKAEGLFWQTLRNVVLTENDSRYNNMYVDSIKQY
# Procedure: The following tests were carried out in order to determine the activity of the compounds of formula (I) and (Ia) in HEK293-Blue-hTLR-7/8/9 cells assay.
# A stable HEK293-Blue-hTLR-8 cell line was purchased from InvivoGen (Cat. #: hkb-htlr8, San Diego, California, USA). These cells were originally designed for studying the stimulation of human TLR8 by monitoring the activation of NF-κB. A SEAP (secreted embryonic alkaline phosphatase) reporter gene was placed under the control of the IFN-β minimal promoter fused to five NF-κB and AP-1-binding sites. The SEAP was induced by activating NF-κB and AP-1 via stimulating HEK-Blue hTLR8 cells with TLR8 ligands. Therefore the reporter expression was declined by TLR8 antagonist under the stimulation of a ligand, such as R848, for incubation of 20 hrs. The cell culture supernatant SEAP reporter activity was determined using QUANTI-Blue™ kit (Cat. #: rep-qb1, Invivogen, San Diego, Ca, USA) at a wavelength of 640 nm, a detection medium that turns purple or blue in the presence of alkaline phosphatase.
# HEK293-Blue-hTLR8 cells were incubated at a density of 250,000˜450,000 cells/mL in a volume of 170 μL in a 96-well plate in Dulbecco's Modified Eagle's medium (DMEM) containing 4.5 g/L glucose, […] penicillin, […], […] Normocin, 2 mM L-glutamine, 10% (v/v) heat-inactivated fetal bovine serum with addition of 20 μL test compound in a serial dilution in the presence of final DMSO at 1% and 10 μL of 60 uM R848 in above DMEM, perform incubation under 37° C. in a C02 incubator for 20 hrs. Then 20 μL of the supernatant from each well was incubated with 180 μL Quanti-blue substrate solution at 37° C. for 2 hrs and the absorbance was read at 620-655 nm using a spectrophotometer. The signaling pathway that TLR8 activation leads to downstream NF-κB activation has been widely accepted, and therefore similar reporter assay was modified for evaluating TLR8 antagonist.
# [1] = Human microsome stability assay; format: in vitro ADME; conditions: 1 μM test compound, 0.5 mg/mL liver microsomal protein, 37° C., pH 7.4
# Procedure: The human microsomal stability assay is used for early assessment of metabolic stability of a test compound in human liver microsomes.
# Human liver microsomes (Cat. NO.: 452117, Corning, USA; Cat. NO.: H2610, Xenotech, USA) were preincubated with test compound for 10 minutes at 37° C. in 100 mM potassium phosphate buffer, pH 7.4. The reactions were initiated by adding NADPH regenerating system. The final incubation mixtures contained 1 μM test compound, 0.5 mg/mL liver microsomal protein, 1 mM MgCl2, 1 mM NADP, 1 unit/mL isocitric dehydrogenase and 6 mM isocitric acid in 100 mM potassium phosphate buffer, pH 7.4. After incubation times of 0, 3, 6, 9, 15 and 30 minutes at 37° C., 300 μL of cold acetonitrile (including internal standard) was added to 100 μL incubation mixture to terminate the reaction. Following precipitation and centrifugation, the amount of compound remaining in the samples were determined by LC-MS/MS. Controls of no NADPH regenerating system at zero and 30 minutes were also prepared and analyzed.
SMILES,IC50 (human TLR8) [nM],Clearance of Human microsome [1] [mL/min/kg]
"Cn1ncc2c(N3CCc4cc(N5CCNCC5)ccc4C3)ccnc21 [Example 3, 2-(1-methylpyrazolo[3,4-b]pyridin-4-yl)-6-piperazin-1-yl-3,4-dihydro-1H-isoquinoline]",56,9.5
"C[C@H]1CN(c2ccnc3c2cnn3C)Cc2ccc(OC[C@@H]3CNCCN3)cc21 [Example 19, (4R)-4-methyl-2-(1-methylpyrazolo[3,4-b]pyridin-4-yl)-6-[[(2S)-piperazin-2-yl]methoxy]-3,4-dihydro-1H-isoquinoline]",4,7.7
"C[C@H]1CN(c2ccnc3c2cnn3C)Cc2ccc(N3C[C@@]4(CCNC4)CC3=O)cc21 (single isomer, unassigned) [Example 53]",6,7.0
"C[C@H]1CN(c2ccnc3c2cnn3C)Cc2ccc(N3C4CCC3CNC4)cc21 [Example 27, (4R)-6-(3,8-diazabicyclo[3.2.1]octan-8-yl)-4-methyl-2-(1-methylpyrazolo[3,4-b]pyridin-4-yl)-3,4-dihydro-1H-isoquinoline]",3,6.2
"C[C@H]1CN(c2ccnc3c2cnn3C)Cc2ccc(N3CCNCC3)nc21 [Example 62, (8S)-8-methyl-6-(1-methylpyrazolo[3,4-b]pyridin-4-yl)-2-piperazin-1-yl-7,8-dihydro-5H-1,6-naphthyridine]",2,6.8
"C[C@H]1CN(c2ccnc3c2cnn3C)Cc2ccc(N3CC4(CCNC4)CC3=O)cc21 (stereo partly drawn) [Example 52, 2-[(4R)-4-methyl-2-(1-methylpyrazolo[3,4-b]pyridin-4-yl)-3,4-dihydro-1H-isoquinolin-6-yl]-2,7-diazaspiro[4.4]nonan-3-one]",3,6.2
"CO[C@@H]1CN(c2ccc3c(c2)[C@@H](C)CN(c2cc(C)nc4c2cnn4C)C3)C[C@H]1N [Example 23, (3R,4R)-4-methoxy-1-[(4R)-2-(1,6-dimethylpyrazolo[3,4-b]pyridin-4-yl)-4-methyl-3,4-dihydro-1H-isoquinolin-6-yl]pyrrolidin-3-amine]",7,7.5
"C[C@H]1CN(c2ccnc3c2cnn3C)Cc2ccc(N3CCC(N4CC(N)C4)CC3)cc21 [Example 28, 1-[1-[(4R)-4-methyl-2-(1-methylpyrazolo[3,4-b]pyridin-4-yl)-3,4-dihydro-1H-isoquinolin-6-yl]-4-piperidyl]azetidin-3-amine]",< 0.3,6.2
"Cc1cc(N2Cc3ccc(N4CCC(O)(CN(C)C)CC4)cc3[C@@H](C)C2)c2cnn(C)c2n1 [Example 14, 4-[(dimethylamino)methyl]-1-[(4R)-2-(1,6-dimethylpyrazolo[3,4-b]pyridin-4-yl)-4-methyl-3,4-dihydro-1H-isoquinolin-6-yl]piperidin-4-ol]",1,6.2
"Cc1cc(N2Cc3cnc(N4CCNCC4)cc3[C@@H](C)C2)c2cnn(C)c2n1 [Example 74, (4R)-2-(1,6-dimethylpyrazolo[3,4-b]pyridin-4-yl)-4-methyl-6-piperazin-1-yl-3,4-dihydro-1H-2,7-naphthyridine]",2,9.2
"C[C@H]1CN(c2ccnc3c2cnn3C)Cc2ccc(N3CC4(CCNC4)OC3=O)cc21 (stereo partly drawn) [Example 35, 3-[(4R)-4-methyl-2-(1-methylpyrazolo[3,4-b]pyridin-4-yl)-3,4-dihydro-1H-isoquinolin-6-yl]-1-oxa-3,7-diazaspiro[4.4]nonan-2-one]",14,8.4
"C[C@H]1CN(c2ccnc3c2cnn3C)Cc2ccc(N3CCN[C@H](CO)C3)cc21 [Example 51, [(2S)-4-[(4R)-4-methyl-2-(1-methylpyrazolo[3,4-b]pyridin-4-yl)-3,4-dihydro-1H-isoquinolin-6-yl]piperazin-2-yl]methanol]",4,7.7
"C[C@H]1CN(c2ccnc3c2cnn3C)Cc2ccc(N3CCN[C@@H](CO)C3)cc21 [Example 50, [(2R)-4-[(4R)-4-methyl-2-(1-methylpyrazolo[3,4-b]pyridin-4-yl)-3,4-dihydro-1H-isoquinolin-6-yl]piperazin-2-yl]methanol]",3,6.2
"CCn1ncc2c(N3Cc4ccc(N5CCNCC5)cc4[C@@H](C)C3)ccnc21 [Example 22, (4R)-2-(1-ethylpyrazolo[3,4-b]pyridin-4-yl)-4-methyl-6-piperazin-1-yl-3,4-dihydro-1H-isoquinoline]",16,6.2
"Cc1cc(N2Cc3ccc(N4CC5(CNCCO5)C4)nc3[C@@H](C)C2)c2cnn(C)c2n1 [Example 68, 2-[(8S)-6-(1,6-dimethylpyrazolo[3,4-b]pyridin-4-yl)-8-methyl-7,8-dihydro-5H-1,6-naphthyridin-2-yl]-5-oxa-2,8-diazaspiro[3.5]nonane]",17,9.8
"C[C@H]1CN(c2ccnc3c2cnn3C)Cc2ccc(N3C[C@@H]4CCNCC4C3=O)cc21 (relative stereo) [Example 55, cis-2-[(4R)-4-methyl-2-(1-methylpyrazolo[3,4-b]pyridin-4-yl)-3,4-dihydro-1H-isoquinolin-6-yl]-3a,4,5,6,7,7a-hexahydro-1H-pyrrolo[3,4-c]pyridin-3-one]",6,8.2
"Cc1cc(N2Cc3ccc(N4CCOC5(CNC5)C4)nc3[C@@H](C)C2)c2cnn(C)c2n1 [Example 70, 8-[(8S)-6-(1,6-dimethylpyrazolo[3,4-b]pyridin-4-yl)-8-methyl-7,8-dihydro-5H-1,6-naphthyridin-2-yl]-5-oxa-2,8-diazaspiro[3.5]nonane]",28,8.1
"CO[C@@H]1CN(c2ccc3c(n2)[C@@H](C)CN(c2cc(C)nc4c2cnn4C)C3)C[C@H]1N [Example 63, (3R,4R)-4-methoxy-1-[(8S)-6-(1,6-dimethylpyrazolo[3,4-b]pyridin-4-yl)-8-methyl-7,8-dihydro-5H-1,6-naphthyridin-2-yl]pyrrolidin-3-amine]",16,6.2
